Each block holds one compound with its values, some of them ahead of it.
Legend:
[1] = target: T1, Neuropeptide Y receptor type 5 (Homo sapiens, UniProt Q15761); test: Displacement of [125I]PYY from human recombinant NPY Y5 receptor expressed in mouse LMtk cells; type: cell-based
T1 sequence (Q15761 whole entry): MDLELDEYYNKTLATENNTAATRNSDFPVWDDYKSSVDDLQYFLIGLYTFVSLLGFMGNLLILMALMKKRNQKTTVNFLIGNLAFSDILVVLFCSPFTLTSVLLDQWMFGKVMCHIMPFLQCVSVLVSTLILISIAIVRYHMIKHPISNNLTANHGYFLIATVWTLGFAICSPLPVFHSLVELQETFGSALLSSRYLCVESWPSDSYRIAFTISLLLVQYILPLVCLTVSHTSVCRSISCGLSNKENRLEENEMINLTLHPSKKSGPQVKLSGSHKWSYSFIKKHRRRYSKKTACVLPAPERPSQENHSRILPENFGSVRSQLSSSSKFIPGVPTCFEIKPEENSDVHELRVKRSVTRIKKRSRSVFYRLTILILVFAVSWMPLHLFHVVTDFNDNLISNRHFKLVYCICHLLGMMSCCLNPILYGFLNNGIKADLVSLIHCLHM

[2] = Lipophilicity, Log D at pH 7.4; conditions: buffer
[3] = Ratio of drug level in cerebrospinal fluid to brain of rat at 3 mg/kg, iv; type: ADME, organism-based, CSF/Brain; design: dose 3 mg/kg, route intravenous; conditions: in vivo
Brain = test: Drug level in rat brain at 3 mg/kg, iv; type: ADME, organism-based; design: dose 3 mg/kg, route intravenous; conditions: in vivo; on Drug uptake: time not given here
LLC-PK1 [4] = test: Efflux ratio of permeability from […] side in mouse mdr1a gene transfected pig LLC-PK1 cells; type: ADME, cell-based, Sus scrofa
[5] = Ratio of drug level in rat brain to plasma at 3 mg/kg, iv; type: ADME, organism-based; design: dose 3 mg/kg, route intravenous
Cerebrospinal fluid = test: Drug level in rat cerebrospinal fluid at 3 mg/kg, iv; type: ADME, organism-based; design: dose 3 mg/kg, route intravenous; conditions: in vivo, read-out: Drug uptake; further: time not given here
Rattus norvegicus = test: Plasma concentration in rat at 3 mg/kg, iv; type: ADME, organism-based; design: dose 3 mg/kg, route intravenous; conditions: in vivo; further: time not given here
LLC-PK1 [6] = test: Efflux ratio of permeability from […] side in human MDR1 gene transfected pig LLC-PK1 cells; type: ADME, cell-based, Sus scrofa
[7] = target: T2, Neuropeptide Y receptor type 1 (Homo sapiens, UniProt P25929); test: Inhibition of human NPY Y1 receptor
T2 sequence (P25929 whole entry): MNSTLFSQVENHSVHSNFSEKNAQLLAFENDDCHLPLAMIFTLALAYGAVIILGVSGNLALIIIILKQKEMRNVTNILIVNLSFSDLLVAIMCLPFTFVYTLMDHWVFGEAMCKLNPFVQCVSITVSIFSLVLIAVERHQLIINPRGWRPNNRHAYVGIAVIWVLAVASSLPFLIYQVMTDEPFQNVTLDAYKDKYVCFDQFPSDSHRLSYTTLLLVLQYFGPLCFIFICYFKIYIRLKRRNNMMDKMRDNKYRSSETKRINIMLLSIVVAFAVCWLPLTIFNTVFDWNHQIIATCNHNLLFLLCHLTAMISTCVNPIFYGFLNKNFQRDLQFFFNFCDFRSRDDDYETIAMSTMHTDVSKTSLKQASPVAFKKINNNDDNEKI

[8] = target: Neuropeptide Y receptor type 4 (Homo sapiens, UniProt P50391); test: Inhibition of human NPY Y4 receptor
Neuropeptide Y receptor type 4, sequence (P50391 whole entry): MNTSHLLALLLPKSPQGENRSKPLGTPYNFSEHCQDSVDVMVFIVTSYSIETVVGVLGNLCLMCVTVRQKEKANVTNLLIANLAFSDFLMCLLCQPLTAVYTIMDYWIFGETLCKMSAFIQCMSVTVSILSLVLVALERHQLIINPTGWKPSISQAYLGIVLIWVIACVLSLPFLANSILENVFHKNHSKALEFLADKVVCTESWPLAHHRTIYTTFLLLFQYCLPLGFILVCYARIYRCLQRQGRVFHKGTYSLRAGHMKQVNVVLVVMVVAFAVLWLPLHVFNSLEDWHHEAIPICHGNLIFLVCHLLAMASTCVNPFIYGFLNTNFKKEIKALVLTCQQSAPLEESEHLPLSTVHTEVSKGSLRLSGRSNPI

[9] = target: T3, Neuropeptide Y receptor type 2 (Homo sapiens, UniProt P49146); test: Inhibition of human NPY Y2 receptor
T3 sequence (P49146 whole entry): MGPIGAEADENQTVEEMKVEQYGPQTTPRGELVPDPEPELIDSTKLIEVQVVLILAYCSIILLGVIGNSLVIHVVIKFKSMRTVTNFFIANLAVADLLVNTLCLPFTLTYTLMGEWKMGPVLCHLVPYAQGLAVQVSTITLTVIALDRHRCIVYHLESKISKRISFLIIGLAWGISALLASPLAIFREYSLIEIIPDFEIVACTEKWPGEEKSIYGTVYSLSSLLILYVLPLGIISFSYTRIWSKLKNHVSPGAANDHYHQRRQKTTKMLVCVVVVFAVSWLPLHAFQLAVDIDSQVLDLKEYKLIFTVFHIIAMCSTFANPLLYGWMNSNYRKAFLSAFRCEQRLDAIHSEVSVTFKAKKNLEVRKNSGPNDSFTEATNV

IC50 [1]: 2.2 nM
Structure (SMILES): O=C1O[C@]2(CC[C@H](C(=O)Nc3ncc(-c4ccccc4OCF)cn3)CC2)c2ccncc21

IC50 [1]: 3.1 nM
Structure (SMILES): O=C1O[C@]2(CC[C@H](C(=O)Nc3ncc(-c4cccc(OCF)c4)cn3)CC2)c2cccnc21

IC50 [1]: 2.7 nM
Structure (SMILES): O=C1O[C@]2(CC[C@H](C(=O)Nc3ncc(-c4ccc(F)cc4)cn3)CC2)c2cnccc21

IC50 [1]: 2.6 nM
logD [2]: 2.71
Structure (SMILES): O=C1O[C@]2(CC[C@H](C(=O)Nc3ncc(-c4ccccc4OCF)cn3)CC2)c2cnccc21

IC50 [1]: 3 nM
Structure (SMILES): O=C1O[C@]2(CC[C@H](C(=O)Nc3ncc(-c4ccccc4F)cn3)CC2)c2cccnc21

Ratio [3]: 0.42
concentration (Brain; read-out: Drug uptake): 150 nM
Ratio (LLC-PK1 [4]): 9.51
Kp [5]: 0.11
concentration (Cerebrospinal fluid): 64 nM
IC50 [1]: 1.8 nM
concentration (Rattus norvegicus): 1500 nM
Ratio (LLC-PK1 [6]): 1.52
logD [2]: 2.71
Structure (SMILES): O=C1O[C@]2(CC[C@H](C(=O)Nc3ncc(-c4cccc(OCF)c4)cn3)CC2)c2ccncc21

Ratio [3]: 0.13
concentration (Brain; read-out: Drug uptake): 740 nM
Ratio (LLC-PK1 [4]): 8.23
Kp [5]: 0.37
concentration (Cerebrospinal fluid): 95 nM
IC50 [1]: 1.9 nM
concentration (Rattus norvegicus): 2040 nM
Ratio (LLC-PK1 [6]): 1.37
logD [2]: 2.75
Structure (SMILES): O=C1O[C@]2(CC[C@H](C(=O)Nc3ncc(-c4cccc(OCF)c4)cn3)CC2)c2cnccc21

IC50 [7]: > 10000 nM
Ratio [3]: 0.19
concentration (Brain; read-out: Cp): 1550 nM
Ratio (LLC-PK1 [4]): 4.43
Kp [5]: 0.5
concentration (Cerebrospinal fluid): 288 nM
IC50 [1]: 1.5 nM
IC50 [8]: > 10000 nM
concentration (Rattus norvegicus): 3100 nM
IC50 [9]: > 10000 nM
Ratio (LLC-PK1 [6]): 1.11
logD [2]: 2.79
Structure (SMILES): O=C1O[C@]2(CC[C@H](C(=O)Nc3ncc(-c4ccccc4F)cn3)CC2)c2ccncc21

IC50 [1]: 1.8 nM
logD [2]: 2.65
Structure (SMILES): O=C1O[C@]2(CC[C@H](C(=O)Nc3ncc(-c4ccccc4)cn3)CC2)c2cnccc21

IC50 [1]: 2.1 nM
logD [2]: 2.32
Structure (SMILES): O=C1O[C@]2(CC[C@H](C(=O)Nc3ncc(-c4ccccc4)cn3)CC2)c2cccnc21

IC50 [1]: 7.5 nM
Structure (SMILES): O=C1O[C@]2(CC[C@H](C(=O)Nc3ncc(-c4ccc(F)cc4)cn3)CC2)c2cccnc21

IC50 [1]: 2 nM
Structure (SMILES): O=C1O[C@]2(CC[C@H](C(=O)Nc3ncc(-c4ccccc4)cn3)CC2)c2ccncc21

IC50 [1]: 0.64 nM
logD [2]: 3.73
Structure (SMILES): O=C1O[C@]2(CC[C@H](C(=O)Nc3ncc(-c4ccccc4)cn3)CC2)c2ccccc21

IC50 [1]: 1.8 nM
Structure (SMILES): O=C1O[C@]2(CC[C@H](C(=O)Nc3ncc(-c4cccc(F)c4)cn3)CC2)c2cnccc21

IC50 [1]: 2.2 nM
Structure (SMILES): O=C1O[C@]2(CC[C@H](C(=O)Nc3ncc(-c4ccc(F)cc4)cn3)CC2)c2ccncc21

Ratio [3]: 0.22
concentration (Brain; read-out: Drug uptake): 1420 nM
Ratio (LLC-PK1 [4]): 7.78
Kp [5]: 0.41
concentration (Cerebrospinal fluid): 308 nM
IC50 [1]: 1.5 nM
concentration (Rattus norvegicus): 3450 nM
Ratio (LLC-PK1 [6]): 1.41
logD [2]: 2.78
Structure (SMILES): O=C1O[C@]2(CC[C@H](C(=O)Nc3ncc(-c4cccc(F)c4)cn3)CC2)c2ccncc21

IC50 [1]: 2.3 nM
Structure (SMILES): O=C1O[C@]2(CC[C@H](C(=O)Nc3ncc(-c4cccc(CF)c4)cn3)CC2)c2cccnc21

IC50 [1]: 2 nM
logD [2]: 2.54
Structure (SMILES): O=C1O[C@]2(CC[C@H](C(=O)Nc3ncc(-c4ccccc4CF)cn3)CC2)c2cnccc21

IC50 [1]: 2.2 nM
logD [2]: 2.48
Structure (SMILES): O=C1O[C@]2(CC[C@H](C(=O)Nc3ncc(-c4cccc(F)c4)cn3)CC2)c2cccnc21

Ratio [3]: 0.22
concentration (Brain; read-out: Drug uptake): 370 nM
Ratio (LLC-PK1 [4]): 7.9
Kp [5]: 0.3
concentration (Cerebrospinal fluid): 79 nM
IC50 [1]: 1.8 nM
concentration (Rattus norvegicus): 1220 nM
Ratio (LLC-PK1 [6]): 1.69
logD [2]: 2.65
Structure (SMILES): O=C1O[C@]2(CC[C@H](C(=O)Nc3ncc(-c4cccc(CF)c4)cn3)CC2)c2cnccc21

IC50 [1]: 1.8 nM
logD [2]: 2.79
Structure (SMILES): O=C1O[C@]2(CC[C@H](C(=O)Nc3ncc(-c4ccccc4F)cn3)CC2)c2cnccc21

IC50 [1]: 2.9 nM
logD [2]: 2.71
Structure (SMILES): O=C1O[C@]2(CC[C@H](C(=O)Nc3ncc(-c4ccccc4)cn3)CC2)c2ncccc21

IC50 [1]: 4.5 nM
Structure (SMILES): O=C1O[C@]2(CC[C@H](C(=O)Nc3ncc(-c4ccccc4OCF)cn3)CC2)c2cccnc21
